For twelve compounds, IC50 results are on record in patent publication US9809625B2, “Immunomodulators” (BRISTOL-MYERS SQUIBB COMPANY, priority 2015, dated 2017).

Structures are written as SMILES. Bridge positions count the residues as written; N and C are the ends. Square brackets hold non-standard residues; d marks the D form. Peptide text beside a SMILES is read from it. * marks the point of attachment. ξ: configuration not given here. Hyp = O=C(O)[C@@H]1C[C@@H](O)CN1; ξW = NC(Cc1c[nH]c2ccccc12)C(=O)O; NH(3-picolyl) = c1cncc(CN*)c1; NMeNle = CCCC[C@H](NC)C(=O)O; X3 = CN(CCN*)C(=O)OC(C)(C)C; NH(CH2)3NMe2 = CN(C)CCCN*; NMeA = CN[C@@H](C)C(=O)O; Piperidide = C1CCN(*)CC1; Pyrrolidide = C1CCN(*)C1; X4 = [N-]=[N+]=NCCCCCN*; Dap = NC[C@H](N)C(=O)O; NH(propargyl) = C#CCN*; X13 = CS(=O)(=O)CCN*; NHCH2CH2OH = OCCN*; NHcBu = C1CC(N*)C1; X6 = O=C1CN(*)CCN1; Sar = CNCC(=O)O

T1 sequence (Q9NZQ7 with tags, fused parts or gaps): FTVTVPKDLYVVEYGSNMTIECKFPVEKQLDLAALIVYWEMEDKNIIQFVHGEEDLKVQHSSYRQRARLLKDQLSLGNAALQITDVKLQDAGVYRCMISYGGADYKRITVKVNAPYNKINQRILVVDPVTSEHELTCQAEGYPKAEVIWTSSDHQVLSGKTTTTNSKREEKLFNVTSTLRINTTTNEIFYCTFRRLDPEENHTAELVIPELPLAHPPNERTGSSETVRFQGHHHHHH

The assay has as its target T1, PD-1-Ig binding to PD-L1-TVMV-His (PD-L1-His) (Homo sapiens, UniProt Q9NZQ7).
T1 construct: hPDL1(19-239)-TVMV-His; TVMV protease cleavage site (C); made in house; host or cells: HEK293T
Description: PD-1/PD-L1 Homogenous Time-Resolved Fluorescence (HTRF) binding assay. Particulars: PD-1-Ig (20 nM)/PD-L1-His (10 nM), range classes. The text has this:
Methods for Testing the Ability of Macrocyclic Peptides to Compete for the Binding of PD-1 to PD-L1 Using Homogenous Time-Resolved Fluorescence (HTRF) Binding Assays
The ability of the macrocyclic peptides of the present disclosure to bind to PD-L1 was investigated using a PD-1/PD-L1 Homogenous Time-Resolved Fluorescence (HTRF) binding assay.
Homogenous Time-Resolved Fluorescence (HTRF) Assays of Binding of Soluble PD-1 to Soluble PD-L1. Soluble PD-1 and soluble PD-L1 refers to proteins with carboxyl-end truncations that remove the transmembrane-spanning regions and are fused to heterologous sequences, specifically the Fc portion of the human immunoglobuling G sequence (Ig) or the hexahistidine epitope tag (His). All binding studies were performed in an HTRF assay buffer consisting of dPBS supplemented with 0.1% (w/v) bovine serum albumin and 0.05% (v/v) Tween-20. For the PD-1-Ig/PD-L1-His binding assay, inhibitors were pre-incubated with PD-L1-His (10 nM final) for 15 m in 4 μl of assay buffer, followed by addition of PD-1-Ig (20 nM final) in 1 μl of assay buffer and further incubation for 15 m. PD-L1 fusion proteins from either human, cynomologous macaques, mouse, or other species were used. HTRF detection was achieved using europium crypate-labeled anti-Ig monoclonal antibody (1 nM final) and allophycocyanin (APC) labeled anti-His monoclonal antibody (20 nM final). Antibodies were diluted in HTRF detection buffer and 5 μl was dispensed on top of binding reaction. The reaction was allowed to equilibrate for 30 minutes and signal (665 nm/620 nm ratio) was obtained using an EnVision fluorometer. Additional binding assays were established between PD-1-Ig/PD-L2-His (20 and 5 nM, respectively), CD80-His/PD-L1-Ig (100 and 10 nM, respectively) and CD80-His/CTLA4-Ig (10 and 5 nM, respectively). Binding/competition studies between biotinylated Compound No. 71 and human PD-L1-His were performed as follows. Macrocyclic peptide inhibitors were pre-incubated with PD-L1-His (10 nM final) for 60 minutes in 4 μl of assay buffer followed by addition of biotinylated Compound No. 71 (0.5 nM final) in 1 μl of assay buffer. Binding was allowed to equilibrate for 30 minutes followed by addition of europium crypated labeled Streptavidin (2.5 pM final) and APC-labeled anti-His (20 nM final) in 5 μl of HTRF buffer. The reaction was allowed to equilibrate for 30 m and signal (665 nm/620 nm ratio) was obtained using an EnVision fluorometer.
Recombinant Proteins. Carboxyl-truncated human PD-1 (amino acids 25-167) with a C-terminal human Ig epitope tag [hPD-1 (25-167)-3S-IG] and human PD-L1 (amino acids 18-239) with a C-terminal His epitope tag [hPD-L1(19-239)-tobacco vein mottling virus protease cleavage site (TVMV)-His] were expressed in HEK293T cells and purified sequentially by recombinant Protein A affinity chromatography and size exclusion chromatography. Human PD-L2-His (Sino Biologicals), CD80-His (Sino Biologicals), CTLA4-Ig (RnD Systems) were all obtained through commercial sources.
On the technique in general: In TR-FRET formats the signal depends on donor and acceptor labels being close together.
Broadly, the IC50 is the concentration that gives 50% inhibition. A lower IC50 goes with greater potency in that assay. On to `CCCC[C@H]1C(=O)N(C)[C@@H](CCCC)C(=O)N[C@@H](CC(C)C)C(=O)N[C@H](C(=O)NCC(=O)NCc2cccnc2)CSCC(=O)N[C@@H](Cc2ccc(O)cc2)C(=O)N(C)[C@@H](C)C(=O)N[C@@H](CC(N)=O)C(=O)N2CCC[C@H]2C(=O)N[C@@H](CN)C(=O)N[C@@H](CC(C)C)C(=O)N2C[C@H](O)C[C@H]2C(=O)N[C@@H](Cc2c[nH]c3ccccc23)C(=O)NCC(=O)NC(Cc2c[nH]c3ccccc23)C(=O)N1C` (stereo partly drawn) [Example 13094] ({CH2CO}-Y[NMeA]NP[Dap]L[Hyp]WG[ξW][NMeNle][NMeNle]LCG-{NH(3-picolyl)}; thioether N-14), for which the IC50 was 0.01 to 0.06 µM. In the case of `C#CCNC(=O)CNC(=O)[C@@H]1CSCC(=O)N[C@@H](Cc2ccc(O)cc2)C(=O)N(C)[C@@H](C)C(=O)N[C@@H](CC(N)=O)C(=O)N2CCC[C@H]2C(=O)N[C@@H](CN)C(=O)N[C@@H](CC(C)C)C(=O)N2C[C@H](O)C[C@H]2C(=O)N[C@@H](Cc2c[nH]c3ccccc23)C(=O)NCC(=O)NC(Cc2c[nH]c3ccccc23)C(=O)N(C)[C@@H](CCCC)C(=O)N(C)[C@@H](CCCC)C(=O)N[C@@H](CC(C)C)C(=O)N1` (stereo partly drawn) [Example 13096] ({CH2CO}-Y[NMeA]NP[Dap]L[Hyp]WG[ξW][NMeNle][NMeNle]LCG-{NH(propargyl)}; thioether N-14) it was 0.01 to 0.06 µM; in that of `CCCC[C@H]1C(=O)N(C)[C@@H](CCCC)C(=O)N[C@@H](CC(C)C)C(=O)N[C@H](C(=O)NCC(=O)NCCO)CSCC(=O)N[C@@H](Cc2ccc(O)cc2)C(=O)N(C)[C@@H](C)C(=O)N[C@@H](CC(N)=O)C(=O)N2CCC[C@H]2C(=O)N[C@@H](CN)C(=O)N[C@@H](CC(C)C)C(=O)N2C[C@H](O)C[C@H]2C(=O)N[C@@H](Cc2c[nH]c3ccccc23)C(=O)NCC(=O)NC(Cc2c[nH]c3ccccc23)C(=O)N1C` (stereo partly drawn) [Example 13095] ({CH2CO}-Y[NMeA]NP[Dap]L[Hyp]WG[ξW][NMeNle][NMeNle]LCG-NHCH2CH2OH; thioether N-14), 0.01 to 0.06 µM; in that of `CCCC[C@H]1C(=O)N(C)[C@@H](CCCC)C(=O)N[C@@H](CC(C)C)C(=O)N[C@H](C(=O)NCC(=O)N2CCNC(=O)C2)CSCC(=O)N[C@@H](Cc2ccc(O)cc2)C(=O)N(C)[C@@H](C)C(=O)N[C@@H](CC(N)=O)C(=O)N2CCC[C@H]2C(=O)N[C@@H](CN)C(=O)N[C@@H](CC(C)C)C(=O)N2C[C@H](O)C[C@H]2C(=O)N[C@@H](Cc2c[nH]c3ccccc23)C(=O)NCC(=O)NC(Cc2c[nH]c3ccccc23)C(=O)N1C` (stereo partly drawn) [Example 13114] ({CH2CO}-Y[NMeA]NP[Dap]L[Hyp]WG[ξW][NMeNle][NMeNle]LCG-X6; thioether N-14), 0.004 to 0.0099 µM. In the case of `CCCC[C@H]1C(=O)N(C)[C@@H](CCCC)C(=O)N[C@@H](CC(C)C)C(=O)N[C@H](C(=O)NCC(=O)NCCN(C)C(=O)OC(C)(C)C)CSCC(=O)N[C@@H](Cc2ccc(O)cc2)C(=O)N(C)[C@@H](C)C(=O)N[C@@H](CC(N)=O)C(=O)N2CCC[C@H]2C(=O)N[C@@H](CN)C(=O)N[C@@H](CC(C)C)C(=O)N2C[C@H](O)C[C@H]2C(=O)N[C@@H](Cc2c[nH]c3ccccc23)C(=O)NCC(=O)NC(Cc2c[nH]c3ccccc23)C(=O)N1C` (stereo partly drawn) [Example 13113] ({CH2CO}-Y[NMeA]NP[Dap]L[Hyp]WG[ξW][NMeNle][NMeNle]LCG-X3; thioether N-14) it was 0.01 to 0.06 µM; in that of `CCCC[C@H]1C(=O)N(C)[C@@H](CCCC)C(=O)N[C@@H](CC(C)C)C(=O)N[C@H](C(=O)NCC(=O)NCCCCCN=[N+]=[N-])CSCC(=O)N[C@@H](Cc2ccc(O)cc2)C(=O)N(C)[C@@H](C)C(=O)N[C@@H](CC(N)=O)C(=O)N2CCC[C@H]2C(=O)N[C@@H](CO)C(=O)N[C@@H](CCC(N)=O)C(=O)N2C[C@H](O)C[C@H]2C(=O)N[C@@H](Cc2c[nH]c3ccccc23)C(=O)N[C@@H](CO)C(=O)N[C@@H](Cc2c[nH]c3ccccc23)C(=O)N1C` [Example 13081] ({CH2CO}-Y[NMeA]NPSQ[Hyp]WSW[NMeNle][NMeNle]LCG-X4; thioether N-14), 0.01 to 0.06 µM; in that of `CCCC[C@H]1C(=O)N(C)[C@@H](CCCC)C(=O)N[C@@H](CC(C)C)C(=O)N[C@H](C(=O)NCC(=O)N2CCCCC2)CSCC(=O)N[C@@H](Cc2ccc(O)cc2)C(=O)N(C)[C@@H](C)C(=O)N[C@@H](CC(N)=O)C(=O)N2CCC[C@H]2C(=O)N[C@@H](CN)C(=O)N[C@@H](CC(C)C)C(=O)N2C[C@H](O)C[C@H]2C(=O)N[C@@H](Cc2c[nH]c3ccccc23)C(=O)NCC(=O)N[C@@H](Cc2c[nH]c3ccccc23)C(=O)N1C` [Example 13086] ({CH2CO}-Y[NMeA]NP[Dap]L[Hyp]WGW[NMeNle][NMeNle]LCG-Piperidide; thioether N-14), 0.004 to 0.0099 µM. To `CCCC[C@H]1C(=O)N(C)[C@@H](CCCC)C(=O)N[C@@H](CC(C)C)C(=O)N[C@H](C(=O)N(C)CC(N)=O)CSCC(=O)N[C@@H](Cc2ccc(O)cc2)C(=O)N(C)[C@@H](C)C(=O)N[C@@H](CC(N)=O)C(=O)N2CCC[C@H]2C(=O)N[C@@H](CN)C(=O)N[C@@H](CC(C)C)C(=O)N2C[C@H](O)C[C@H]2C(=O)N[C@@H](Cc2c[nH]c3ccccc23)C(=O)NCC(=O)N[C@@H](Cc2c[nH]c3ccccc23)C(=O)N1C` [Example 13090] ({CH2CO}-Y[NMeA]NP[Dap]L[Hyp]WGW[NMeNle][NMeNle]LC[Sar]-NH2; thioether N-14) belongs 0.004 to 0.0099 µM. `CCCC[C@H]1C(=O)N(C)[C@@H](CCCC)C(=O)N[C@@H](CC(C)C)C(=O)N[C@H](C(=O)NCC(=O)NCCS(C)(=O)=O)CSCC(=O)N[C@@H](Cc2ccc(O)cc2)C(=O)N(C)[C@@H](C)C(=O)N[C@@H](CC(N)=O)C(=O)N2CCC[C@H]2C(=O)N[C@@H](CN)C(=O)N[C@@H](CC(C)C)C(=O)N2C[C@H](O)C[C@H]2C(=O)N[C@@H](Cc2c[nH]c3ccccc23)C(=O)NCC(=O)NC(Cc2c[nH]c3ccccc23)C(=O)N1C` (stereo partly drawn) [Example 13116] ({CH2CO}-Y[NMeA]NP[Dap]L[Hyp]WG[ξW][NMeNle][NMeNle]LCG-X13; thioether N-14) registered an IC50 of 0.01 to 0.06 µM. To `CCCC[C@H]1C(=O)N(C)[C@@H](CCCC)C(=O)N[C@@H](CC(C)C)C(=O)N[C@H](C(=O)NCC(=O)NCCCN(C)C)CSCC(=O)N[C@@H](Cc2ccc(O)cc2)C(=O)N(C)[C@@H](C)C(=O)N[C@@H](CC(N)=O)C(=O)N2CCC[C@H]2C(=O)N[C@@H](CN)C(=O)N[C@@H](CC(C)C)C(=O)N2C[C@H](O)C[C@H]2C(=O)N[C@@H](Cc2c[nH]c3ccccc23)C(=O)NCC(=O)NC(Cc2c[nH]c3ccccc23)C(=O)N1C` (stereo partly drawn) [Example 13098] ({CH2CO}-Y[NMeA]NP[Dap]L[Hyp]WG[ξW][NMeNle][NMeNle]LCG-{NH(CH2)3NMe2}; thioether N-14) belongs 0.01 to 0.06 µM; to `CCCC[C@H]1C(=O)N(C)[C@@H](CCCC)C(=O)N[C@@H](CC(C)C)C(=O)N[C@H](C(=O)NCC(=O)NC2CCC2)CSCC(=O)N[C@@H](Cc2ccc(O)cc2)C(=O)N(C)[C@@H](C)C(=O)N[C@@H](CC(N)=O)C(=O)N2CCC[C@H]2C(=O)N[C@@H](CN)C(=O)N[C@@H](CC(C)C)C(=O)N2C[C@H](O)C[C@H]2C(=O)N[C@@H](Cc2c[nH]c3ccccc23)C(=O)NCC(=O)N[C@@H](Cc2c[nH]c3ccccc23)C(=O)N1C` [Example 13092] ({CH2CO}-Y[NMeA]NP[Dap]L[Hyp]WGW[NMeNle][NMeNle]LCG-NHcBu; thioether N-14), 0.01 to 0.06 µM. In the case of `CCCC[C@H]1C(=O)N(C)[C@@H](CCCC)C(=O)N[C@@H](CC(C)C)C(=O)N[C@H](C(=O)NCC(=O)N2CCCC2)CSCC(=O)N[C@@H](Cc2ccc(O)cc2)C(=O)N(C)[C@@H](C)C(=O)N[C@@H](CC(N)=O)C(=O)N2CCC[C@H]2C(=O)N[C@@H](CN)C(=O)N[C@@H](CC(C)C)C(=O)N2C[C@H](O)C[C@H]2C(=O)N[C@@H](Cc2c[nH]c3ccccc23)C(=O)NCC(=O)N[C@@H](Cc2c[nH]c3ccccc23)C(=O)N1C` [Example 13085] ({CH2CO}-Y[NMeA]NP[Dap]L[Hyp]WGW[NMeNle][NMeNle]LCG-Pyrrolidide; thioether N-14) it was 0.01 to 0.06 µM.
